Data as given in the supplement of paper PMC6045584.
± gives the standard deviation of the averaged measurements.

What was measured:
Test in all cases: surviving fraction relative to DMSO-only wells; higher = less growth inhibition
Conditions in all cases: exposure time: 5 days
[1] = compound: COc1ccc(-c2cc3c(C)nc(N)nc3n([C@H]3CC[C@H](OCCO)CC3)c2=O)cn1
How it was run: (§1)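 Continuous five-day exposure to inhibitors at 0.5, 1, 5, 10, 50, 100, 500 and 1000 nM started 24 hours after log-phase tumour cell lines were seeded at 250–500 cells per well in 384-well plates. Luminescence was read after 10 minutes at room temperature. Viability is given as surviving fraction, meaning CellTiter-Glo luminescence normalised to the median of DMSO-only wells.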

[2] = compound: C=CCn1c(=O)c2cnc(Nc3ccc(N4CCN(C)CC4)cc3)nc2n1-c1cccc(C(C)(C)O)n1 [MK-1775]
How it was run: as §1

[3] = compound: Cc1ccc(NC(=O)c2ccc(CN3CCN(C)CC3)cc2)cc1Nc1nccc(-c2cccnc2)n1 [IMATINIB]
How it was run: as §1

[4] = compound: Cn1c(=O)n(-c2ccc(C(C)(C)C#N)cc2)c2c3cc(-c4cnc5ccccc5c4)ccc3ncc21 [BEZ-235]
How it was run: as §1

[5] = compound: Cc1c(N)nc([C@H](CC(N)=O)NC[C@H](N)C(N)=O)nc1C(=O)N[C@H](C(=O)N[C@H](C)[C@@H](O)[C@H](C)C(=O)N[C@H](C(=O)NCCc1nc(-c2nc(C(=O)NCCC[S+](C)C)cs2)cs1)[C@@H](C)O)[C@@H](OC1OC(CO)C(O)C(O)C1OC1OC(CO)C(O)C(OC(N)=O)C1O)c1cnc[nH]1 [BLEOMYCIN]
How it was run: as §1

[6] = compound: O=C(CCCCCCC(=O)Nc1ccccc1)NO [VORINOSTAT]
How it was run: as §1

[7] = compound: COc1cc2nccc(Oc3ccc(NC(=O)NC4CC4)c(Cl)c3)c2cc1C(N)=O [LENVATINIB]
How it was run: as §1

In the case of HS57T BREAST, the surviving fraction ([1]; 0.5 nM) is reported as 0.946 ± 0.059, the surviving fraction ([1]; 1 nM) is reported as 1.01 ± 0.07 and the surviving fraction ([1]; 5 nM) is reported as 0.959 ± 0.026. It also gave a surviving fraction ([1]; 10 nM) of 0.939 ± 0.033, a surviving fraction ([1]; 50 nM) of 0.6 ± 0.023 and a surviving fraction ([1]; 100 nM) of 0.429 ± 0.034. The surviving fraction ([1]; 500 nM) was 0.148 ± 0.004, the surviving fraction ([1]; 1000 nM) was 0.117 ± 0.0076 and the surviving fraction ([2]; 0.5 nM) was 0.969 ± 0.04. For the same test system, the surviving fraction ([2]; 1 nM) was 1.04 ± 0.017, the surviving fraction ([2]; 5 nM) was 1.06 ± 0.06 and the surviving fraction ([2]; 10 nM) was 0.963 ± 0.029. The surviving fraction ([2]; 50 nM) was 0.597 ± 0.018, the surviving fraction ([2]; 100 nM) was 0.336 ± 0.041 and the surviving fraction ([2]; 500 nM) was 0.134 ± 0.0042. It also gave a surviving fraction ([2]; 1000 nM) of 0.098 ± 0.011, a surviving fraction ([3]; 1 nM) of 1 ± 0.062 and a surviving fraction ([3]; 5 nM) of 1.14 ± 0.016. For the same test system, the surviving fraction ([3]; 10 nM) was 1.14 ± 0.024, the surviving fraction ([3]; 50 nM) was 1.17 ± 0.069 and the surviving fraction ([3]; 100 nM) was 1.09 ± 0.056. The surviving fraction ([3]; 500 nM) was 1.04 ± 0.034, the surviving fraction ([3]; 1000 nM) was 1.01 ± 0.093 and the surviving fraction ([4]; 0.5 nM) was 1.08 ± 0.039. The surviving fraction ([4]; 1 nM) was 1.03 ± 0.033, the surviving fraction ([4]; 5 nM) was 0.916 ± 0.027 and the surviving fraction ([4]; 10 nM) was 0.826 ± 0.016. For the same test system, the surviving fraction ([4]; 50 nM) was 0.335 ± 0.021, the surviving fraction ([4]; 100 nM) was 0.258 ± 0.0071 and the surviving fraction ([4]; 500 nM) was 0.186 ± 0.009. For the same test system, the surviving fraction ([4]; 1000 nM) was 0.181 ± 0.011, the surviving fraction ([5]; 0.5 nM) was 0.868 ± 0.026 and the surviving fraction ([5]; 1 nM) was 0.91 ± 0.11. For the same test system, the surviving fraction ([5]; 5 nM) was 0.9263 ± 0.0091, the surviving fraction ([5]; 10 nM) was 0.918 ± 0.057 and the surviving fraction ([5]; 50 nM) was 0.842 ± 0.032. It also gave a surviving fraction ([5]; 100 nM) of 0.723 ± 0.034, a surviving fraction ([5]; 500 nM) of 0.36 ± 0.041 and a surviving fraction ([5]; 1000 nM) of 0.225 ± 0.0065. It also gave a surviving fraction ([6]; 0.5 nM) of 0.935 ± 0.066, a surviving fraction ([6]; 1 nM) of 0.992 ± 0.038 and a surviving fraction ([6]; 5 nM) of 1.01 ± 0.073. For the same test system, the surviving fraction ([6]; 10 nM) was 1.071 ± 0.009, the surviving fraction ([6]; 50 nM) was 1.04 ± 0.052 and the surviving fraction ([6]; 100 nM) was 0.995 ± 0.056. For the same test system, the surviving fraction ([6]; 500 nM) was 0.804 ± 0.049, the surviving fraction ([6]; 1000 nM) was 0.475 ± 0.026 and the surviving fraction ([7]; 0.5 nM) was 1.04 ± 0.027. For the same test system, the surviving fraction ([7]; 1 nM) was 1.01 ± 0.085, the surviving fraction ([7]; 5 nM) was 1.084 ± 0.0086 and the surviving fraction ([7]; 10 nM) was 1.14 ± 0.049. The surviving fraction ([7]; 50 nM) was 1.1 ± 0.042, the surviving fraction ([7]; 100 nM) was 1.09 ± 0.064 and the surviving fraction ([7]; 500 nM) was 0.831 ± 0.029. It also gave a surviving fraction ([7]; 1000 nM) of 0.74 ± 0.023.
